Here are results for 32 compounds from patent US10899723B2, “Heterocyclic containing cyclopropyl FXR modulators” (Hepagene Therapeutics (HK) Limited, priority 2016, dated 2021).

Structures can show the parent of a compound that is named as a salt.

The EC50 is the concentration needed to bring the measured effect to its halfway point. Low values mean an effect from little substance, high ones a need for much substance.

One assay has as its target T1, FXR-LBD (Homo sapiens, UniProt Q96RI1).
T1 construct: Add 5 μl of 4×FXR-LBD to 384 well assay plates; purchased
T1 sequence (Q96RI1 262-486 limits assumed): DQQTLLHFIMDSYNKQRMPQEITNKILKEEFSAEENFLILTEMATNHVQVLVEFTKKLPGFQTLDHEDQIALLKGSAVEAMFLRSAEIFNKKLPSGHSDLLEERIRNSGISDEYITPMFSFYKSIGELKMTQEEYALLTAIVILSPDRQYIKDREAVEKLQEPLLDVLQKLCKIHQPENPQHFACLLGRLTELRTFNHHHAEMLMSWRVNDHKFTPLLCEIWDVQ
The assay is described as follows: FXR Coactivator Assay (LanthaScreen TR-FRET). Format: biochemical.
Conditions: not given
The procedure:
(§1) • 1. Hek293T cells were plated at 1.1*10^6/ml into a 100 mm dish. • 2. Cells were transfected with 8.4 μg of pBind-FXR, 1.26 μg of the reporter vector pGL4.35 (Promega). Cells were incubated at 37° C. under 5% CO2 atmosphere. • 3. All of compounds were 3-fold serial diluted from 10 mM stock for 10 doses in DMSO. • 4. Transfer compound dilutions into 384 well assay plates using liquid workstation. • 5. Seed 25 ul HEK293T cells into 384 well assay plate (prepared step 4) at 0.6*10^5/ml. Cells were incubated at 37° C. under 5% CO2 atmosphere overnight. • 6. Add 25 ul steady-Glo™ Luciferase Assay Reagent into each well of 384-well assay plate. • 7. Record the luminescence value on Envision 2104 plate reader. • 8. Calculate EC50 by fitting % Activity values and log of compound concentrations to nonlinear regression (dose response−variable slope) with Graphpad 5.0. FXR Coactivator Assay Reagents: LanthaScreen™ TR-FRET Farnesoid X Receptor Coactivator Assay GW4064 as a positive control Process: • 1. All of compounds were 3-fold serial diluted from 10 mM stock for 10 doses in DMSO. • 2. Dilute each 100× agonist serial dilution to 2× using Complete Coregulator buffer G. • 3. Transfer 10 μl of each of the 2× agonist serial dilutions to 384 well assay plates. • 4. […] Incubate at room temperature protected from light. • 7. Read the plate at wavelengths of 520 nm and 495 nm on Envision 2104 plate reader. • 8. Calculate the TR-FRET ratio by dividing the emission signal at 520 nm by the emission signal at 495 nm. • 9. Calculate EC50 by fitting % Activity values and log of compound concentrations to nonlinear regression (dose response−variable slope) with Graphpad 5.0.
A general note: TR-FRET usually uses a lanthanide donor and a delayed reading to cut background.
Compound `CC(C)c1onc(-c2c(Cl)cccc2Cl)c1COc1ccc(C2CC2(CN)c2ccc(C(=O)O)cc2)c(Cl)c1` (centres unmarked) [Compound V2-01, 4-[1-(Aminomethyl)-2-(2-chloro-4-[[3-(2,6-dichlorophenyl)-5-(propan-2-yl)-1,2-oxazol-4-yl]methoxy]phenyl)cyclopropyl] benzoic Acid Hydrochloride] came in with an EC50 of 401 to 5000 nM.

`Cc1cc(C(=O)O)cc2sc(C3(C)CC3c3ccc(OCc4c(-c5c(Cl)cccc5Cl)noc4C4CC4)cc3Cl)nc12` (centres unmarked) [IV-18] returned an EC50 of 401 to 5000 nM.

`COc1cc(C(=O)O)cc2sc(C3CC3(C)c3ccc(OCc4c(-c5c(Cl)cccc5Cl)noc4C(C)C)cc3Cl)nc12` (centres unmarked) [VI-10] had an EC50 of 101 to 400 nM.

A further assay addresses T2, FXR (Homo sapiens, UniProt Q96RI1).
T2 construct: expressed in transfected cells; host or cells: HEK293T
T2 sequence (Q96RI1 1-486): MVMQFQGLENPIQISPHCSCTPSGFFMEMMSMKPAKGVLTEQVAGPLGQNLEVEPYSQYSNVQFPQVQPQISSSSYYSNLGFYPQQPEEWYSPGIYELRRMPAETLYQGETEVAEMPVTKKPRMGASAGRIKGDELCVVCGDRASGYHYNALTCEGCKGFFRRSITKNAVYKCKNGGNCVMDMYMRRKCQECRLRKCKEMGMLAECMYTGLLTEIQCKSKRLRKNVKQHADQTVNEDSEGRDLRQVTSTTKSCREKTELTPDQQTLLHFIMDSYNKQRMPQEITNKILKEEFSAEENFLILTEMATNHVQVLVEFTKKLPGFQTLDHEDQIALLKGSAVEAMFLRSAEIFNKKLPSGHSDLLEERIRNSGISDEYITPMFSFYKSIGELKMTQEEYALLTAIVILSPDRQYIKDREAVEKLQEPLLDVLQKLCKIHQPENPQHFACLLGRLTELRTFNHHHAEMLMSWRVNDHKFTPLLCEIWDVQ
The assay is described as follows: FXR Transactivation Assay (pBIND-FXR / pGL4.35 luciferase reporter in HEK293T). Format: cell-based. As to conditions: HEK293T cells. The procedure: FXR Transactivation Assay
pGL4.35 [luc2P/9XGAL4 UAS/Hygro]
DMEM medium, high glucose
Fetal Bovine Serum (FBS, heat-inactivated)
Penicillin-Streptomycin (10000 U/ml, 100 ml)
DMEM, High Glucose, HEPES, no Phenol Red
Opti-MEM® I Reduced Serum Medium
Steady-Glo™ Luciferase Assay System
TransIT-293 Transfection Reagent
GW4064 as a positive control
as §1
In general terms: A reporter such as luciferase makes a cellular process visible.
For the compound `COc1cc(C(=O)O)cc2sc(C3CC3(C#N)c3ccc(OCc4c(-c5c(Cl)cccc5Cl)noc4C4CC4)cc3Cl)nc12` (centres unmarked) [VII-06, 2-[2-(2-Chloro-4-[[5-cyclopropyl-3-(2,6-dichlorophenyl)-1,2-oxazol-4-yl]methoxy]phenyl)-2-cyanocyclopropyl]-4-methoxy-1,3-benzothiazole-6-carboxylic Acid], the EC50 was 101 to 400 nM.

Compound `CC(C)c1onc(-c2c(Cl)cccc2Cl)c1COc1ccc(C2(C)CC2c2nc3c(F)cc(C(=O)O)cc3s2)c(Cl)c1` (centres unmarked) [VI-08] had an EC50 of 10 to 100 nM.

`CC1(c2ccnc(C(=O)O)c2)CC1c1ccc(OCc2c(-c3c(Cl)cccc3Cl)noc2C2CC2)cc1Cl` (centres unmarked) [IV-07] yielded an EC50 of 401 to 5000 nM.

The compound `CC(C)c1onc(-c2c(Cl)cccc2Cl)c1COc1ccc(C2(C)CC2c2nc3ccc(C(=O)O)cc3s2)c(Cl)c1` (centres unmarked) [VI-11] gave an EC50 of 10 to 100 nM.

For `CC1(c2nc3ccc(C(=O)O)cc3s2)CC1c1ccc(OCc2c(-c3c(Cl)cccc3Cl)noc2C2CC2)cc1Cl` (centres unmarked) [IV-17], the EC50 fell in the range of 101 to 400 nM.

`COc1ccc(C(=O)O)cc1C1CC1(C#N)c1ccc(OCc2c(-c3c(Cl)cccc3Cl)noc2C2CC2)cc1Cl` (centres unmarked) [VII-09] had an EC50 of 101 to 400 nM.

`CC1(c2cncc(C(=O)O)c2)CC1c1ccc(OCc2c(-c3ccccc3OC(F)F)noc2C2CC2)cc1Cl` (centres unmarked) [IV-10] showed a 50% effective concentration (EC50) of 101 to 400 nM.

`CC1(c2cncc(C(=O)O)c2)CC1c1ccc(OCc2c(-c3c(Cl)cccc3Cl)noc2C2CC2)cc1Cl` (single isomer, unassigned) [IV-06-1, 5-[2-(2-Chloro-4-[[5-cyclopropyl-3-(2,6-dichlorophenyl)-1,2-oxazol-4-yl]methoxy]phenyl)-1-methylcyclopropyl] pyridine-3-carboxylic Acid] came in with an EC50 of 101 to 400 nM.

In turn, `CC(C)c1cnn(-c2c(Cl)cccc2Cl)c1COc1ccc(C2CC2(C)c2cncc(C(=O)O)c2)c(Cl)c1` (centres unmarked) [IV-11] registered an EC50 of 10 to 100 nM.

Regarding `CC1(c2cncc(C(=O)NCC(=O)O)c2)CC1c1ccc(OCc2c(-c3c(Cl)cccc3Cl)noc2C2CC2)cc1Cl` (centres unmarked) [IV-12, 2-([5-[2-(2-Chloro-4-[[5-cyclopropyl-3-(2,6-dichlorophenyl)-1,2-oxazol-4-yl]methoxy]phenyl)-1-methylcyclopropyl]pyridin-3-yl] formamido) Acetic Acid], the EC50 was 401 to 5000 nM.

Take `N#CC1(c2ccc(OCc3c(-c4c(Cl)cccc4Cl)noc3C3CC3)cc2Cl)CC1c1cncc(C(=O)O)c1` (centres unmarked) [VII-05, 5-(2-(4-((3-(2,6-Dichlorophenyl)-5-cyclopropylisoxazol-4-yl)methoxy)-2-chlorophenyl)-2-cyanocyclopropyl) pyridine-3-carboxylic Acid]: the EC50 fell in the range of 401 to 5000 nM.

`CC1(c2ccc(OCc3c(-c4c(Cl)cccc4Cl)noc3C3CC3)cc2Cl)CC1c1ccnc(C(=O)O)c1` (centres unmarked) [VI-06]: the EC50 was in the range of 10 to 100 nM.

With `CC(C)c1onc(-c2c(Cl)cccc2Cl)c1COc1ccc(C2CC2(C)c2ccc3c(c2)c(C(=O)O)nn3C(C)C)c(Cl)c1` (centres unmarked) [IV-14], the EC50 fell in the range of 401 to 5000 nM.

On to `CC1(c2cncc(C(=O)O)c2)CC1c1ccc(OCc2c(-c3ccccc3OC(F)(F)F)noc2C2CC2)cc1Cl` (centres unmarked) [IV-09, 5-[2-[2-Chloro-4-([5-cyclopropyl-3-[2-(trifluoromethoxy)phenyl]-1,2-oxazol-4-yl]methoxy)phenyl]-1-methylcyclopropyl] pyridine-3-carboxylic Acid], for which the EC50 lay in the range of 101 to 400 nM.

In turn, `Cc1cc(C(=O)O)cc(C2CC2(C#N)c2ccc(OCc3c(-c4c(Cl)cccc4Cl)noc3C3CC3)cc2Cl)c1` (centres unmarked) [VII-10] yielded an EC50 of 10 to 100 nM.

For the compound `N#CC1(c2ccc(OCc3c(-c4c(Cl)cccc4Cl)noc3C3CC3)cc2Cl)CC1c1cccc(C(=O)O)c1` (single isomer, unassigned) [VII-03-2, 3-[2-(2-Chloro-4-[[5-cyclopropyl-3-(2,6-dichlorophenyl)-1,2-oxazol-4-yl]methoxy]phenyl)-2-cyanocyclopropyl] benzoic Acid], the EC50 lay within 10 to 100 nM.

As to `CC1(c2ccc(OCc3c(-c4c(Cl)cccc4Cl)noc3C3CC3)cc2Cl)CC1c1cc(C(=O)O)ccn1` (centres unmarked) [VI-07], the EC50 fell in the range of 101 to 400 nM.

As to `CC(C)c1onc(-c2c(Cl)cccc2Cl)c1COc1ccc(C2(C)CC2c2ncc(C(=O)O)s2)c(Cl)c1` (centres unmarked) [VI-12, 2-(2-(2-Chloro-4-((3-(2,6-dichlorophenyl)-5-isopropylisoxazol-4-yl)methoxy)phenyl)-2-methylcyclopropyl) thiazole-5-carboxylic Acid], the EC50 was in the range of 10 to 100 nM.

Compound `CC(C)n1nc(C(=O)O)cc1C1CC1(C#N)c1ccc(OCc2c(-c3c(Cl)cccc3Cl)noc2C2CC2)cc1Cl` (centres unmarked) [VII-07] showed an EC50 of 401 to 5000 nM.

In turn, `N#CC1(c2cncc(C(=O)O)c2)CC1c1ccc(OCc2c(-c3c(Cl)cccc3Cl)noc2C2CC2)cc1Cl` (centres unmarked) [Compound V-04, 5-[2-(2-Chloro-4-[[5-cyclopropyl-3-(2,6-dichlorophenyl)-1,2-oxazol-4-yl]methoxy]phenyl)-1-cyanocyclopropyl] pyridine-3-carboxylic Acid] gave an EC50 of 401 to 5000 nM.

The compound `CC1(c2cncc(C(=O)O)c2)CC1c1ccc(OCc2c(-c3c(Cl)cccc3Cl)noc2C2CC2)cc1Cl` (single isomer, unassigned) [IV-06-2, 5-[2-(2-Chloro-4-[[5-cyclopropyl-3-(2,6-dichlorophenyl)-1,2-oxazol-4-yl]methoxy]phenyl)-1-methylcyclopropyl] pyridine-3-carboxylic Acid] yielded an EC50 of 10 to 100 nM.

`Cc1ccc(C(=O)O)cc1C1CC1(C#N)c1ccc(OCc2c(-c3c(Cl)cccc3Cl)noc2C2CC2)cc1Cl` (centres unmarked) [VII-08] gave an EC50 of 10 to 100 nM.

Regarding `CC1(c2ccc(OCc3c(-c4c(Cl)cccc4Cl)noc3C3CC3)cc2Cl)CC1c1cccc(C(=O)O)c1` (centres unmarked) [VI-03], the EC50 lay in the range of 10 to 100 nM.

In turn, `CC1(c2cncc(C(=O)O)c2)CC1c1ccc(OCc2c(-c3c(Cl)cncc3Cl)noc2C2CC2)cc1Cl` (centres unmarked) [IV-08] displayed an EC50 of 101 to 400 nM.

`CC1(c2cccc(C(=O)O)c2)CC1c1ccc(OCc2c(-c3c(Cl)cncc3Cl)noc2C2CC2)cc1Cl` (centres unmarked) [IV-04] came in with an EC50 of 101 to 400 nM.

In the case of `COc1cc(C(=O)O)cc2sc(C3(C)CC3c3ccc(OCc4c(-c5c(Cl)cccc5Cl)noc4C(C)C)cc3Cl)nc12` (centres unmarked) [IV-16], the concentration for a half-maximal effect (EC50) was 101 to 400 nM.

With `CC1(c2ccc(OCc3c(-c4c(Cl)cccc4Cl)noc3C3CC3)cc2Cl)CC1c1ncc(C(=O)O)s1` (centres unmarked) [VI-13], the concentration for a half-maximal effect (EC50) lay in the range of 10 to 100 nM.

For the compound `N#CC1(c2cccc(C(=O)O)c2)CC1c1ccc(OCc2c(-c3c(Cl)cccc3Cl)noc2C2CC2)cc1Cl` (centres unmarked) [Compound V-03], the EC50 lay in the range of 401 to 5000 nM.

Take `CC1(c2ccc(OCc3c(-c4c(Cl)cccc4Cl)noc3C3CC3)cc2Cl)CC1c1nc2c(F)cc(C(=O)O)cc2s1` (centres unmarked) [VI-09]: the EC50 lay in the range of 10 to 100 nM.
